Data reported in patent US11142515B2, “Pyrazolyl-ureas as kinase inhibitors” (RESPIVERT LIMITED, priority 2014, dated 2021).

What follows are molecules tested against T1, p38 MAPKα isoform (MAPK14) (Homo sapiens, UniProt Q16539) (assay: p38 MAPKα enzyme inhibition (Z-LYTE FRET)). Details: Table 2B, unit inferred; read-out: p38 MAPKα (Enzyme Profile).
T1 construct: purchased Life Technologies
Assay type: biochemical
Description: (§1) The enzyme inhibitory activities of compounds disclosed herein were determined by FRET using synthetic peptides labelled with both donor and acceptor fluorophores (Z-LYTE, Life Technologies, Paisley, UK).
The inhibitory activities of compounds of the invention against the p38 MAPKα isoform (MAPK14: Life Technologies), were evaluated indirectly by determining the level of activation/phosphorylation of the target peptide of the p38 MAPKα down-stream molecule, MAPKAP-K2. The enzyme (40 ng/mL, 2.5 μL) was incubated with the test compound (2.5 μL of either 40 μg/mL, 12 μg/mL, 4 μg/mL, 1.2 μg/mL, 0.4 μg/mL, 0.12 μg/mL, 0.04 μg/mL, 0.012 μg/mL, 0.004 μg/mL or 0.0012 μg/mL) for 2 h at RT. […] Development reagent (protease, 5 μL) was added for 1 h prior to detection in a fluorescence microplate reader (EnVision, Perkin Elmer, Waltham, Mass., USA).
(§2) In all cases, the site-specific protease cleaves non-phosphorylated peptide only and eliminates the FRET signal. Phosphorylation levels of each reaction were calculated using the ratio of coumarin emission (donor) over fluorescein emission (acceptor), for which low ratios indicate high phosphorylation and high ratios indicate low phosphorylation levels.

T1 sequence (Q16539 whole entry, canonical isoform): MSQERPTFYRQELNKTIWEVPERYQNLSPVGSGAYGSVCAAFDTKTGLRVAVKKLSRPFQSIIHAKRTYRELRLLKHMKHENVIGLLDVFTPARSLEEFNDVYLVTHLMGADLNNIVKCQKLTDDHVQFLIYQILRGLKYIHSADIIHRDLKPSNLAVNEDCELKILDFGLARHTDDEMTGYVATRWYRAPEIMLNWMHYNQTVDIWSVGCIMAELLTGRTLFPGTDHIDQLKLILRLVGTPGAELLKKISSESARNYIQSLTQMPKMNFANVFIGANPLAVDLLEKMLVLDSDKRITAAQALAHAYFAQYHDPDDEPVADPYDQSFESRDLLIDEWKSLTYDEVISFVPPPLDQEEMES

IC50 [nM]	Structure (SMILES)
32	COCCCc1cnc(Nc2cc(COc3ccc(NC(=O)Nc4cc(C(C)(C)C)nn4-c4ccc(C)cc4)c4ccccc34)ccn2)cn1 [Example 188, 1-(3-(tert-butyl)-1-(p-tolyl)-1H-pyrazol-5-yl)-3-(4-((2-((5-(3-methoxypropyl)pyrazin-2-yl)amino)pyridin-4-yl)methoxy)naphthalen-1-yl)urea]
13	CSc1ccc(-n2nc(C(C)(C)C)cc2NC(=O)Nc2ccc(OCc3ccnc(Nc4cnccn4)c3)c3ccccc23)cc1 [Example 149, 1-(3-(tert-butyl)-1-(4-(methylthio)phenyl)-1H-pyrazol-5-yl)-3-(4-((2-(pyrazin-2-ylamino)pyridin-4-yl)methoxy)naphthalen-1-yl)urea]
17	CC(C)(C)c1cc(NC(=O)Nc2ccc(OCc3ccnc(Nc4cnccn4)c3)c3ccccc23)n(-c2ccccc2)n1 [Example 75]

The molecules below were run against T2, p38MAPKγ (MAPK12) (Homo sapiens, UniProt P53778) (assay: p38 MAPKγ enzyme inhibition (Z-LYTE FRET)). Details: Table 2B, unit inferred; read-out: p38 MAPKγ (Enzyme Profile).
T2 construct: purchased Life Technologies
T2 sequence (P53778 1-367): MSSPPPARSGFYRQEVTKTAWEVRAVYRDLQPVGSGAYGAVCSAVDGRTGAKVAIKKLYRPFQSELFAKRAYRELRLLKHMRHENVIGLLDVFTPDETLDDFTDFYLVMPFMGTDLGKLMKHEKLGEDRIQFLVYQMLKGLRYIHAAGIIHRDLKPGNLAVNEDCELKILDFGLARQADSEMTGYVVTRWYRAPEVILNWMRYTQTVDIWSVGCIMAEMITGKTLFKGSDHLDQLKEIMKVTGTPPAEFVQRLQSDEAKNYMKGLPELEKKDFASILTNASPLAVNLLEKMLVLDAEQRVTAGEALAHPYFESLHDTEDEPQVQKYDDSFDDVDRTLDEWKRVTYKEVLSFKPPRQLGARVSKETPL
Assay type: biochemical
Description: as §1
The inhibitory activities of compounds of the invention against p38MAPKγ (MAPK12: Life Technologies), were evaluated by determining the level of activation/phosphorylation of the target peptide. The enzyme (800 ng/mL, 2.5 μL) was incubated with the test compound (2.5 μL at either 40 μg/mL, 12 μg/mL, 4 μg/mL, 1.2 μg/mL, 0.4 μg/mL, 0.12 μg/mL, 0.04 μg/mL, 0.012 μg/mL, 0.004 μg/mL or 0.0012 μg/mL) for 2 h at RT. The FRET peptides (8 μM, 2.5 μL), and appropriate ATP solution (2.5 μL, 400 μM) were then added to the enzymes/compound mixtures and incubated for 1 h at RT. Development reagent (protease, 5 μL) was added for 1 h prior to detection in a fluorescence microplate reader (EnVision, Perkin Elmer).
as §2

IC50 [nM]	Structure (SMILES)
442	COCCCc1cnc(Nc2cc(COc3ccc(NC(=O)Nc4cc(C(C)(C)C)nn4-c4ccc(C)cc4)c4ccccc34)ccn2)cn1 [Example 188, 1-(3-(tert-butyl)-1-(p-tolyl)-1H-pyrazol-5-yl)-3-(4-((2-((5-(3-methoxypropyl)pyrazin-2-yl)amino)pyridin-4-yl)methoxy)naphthalen-1-yl)urea]
> 15900	CSc1ccc(-n2nc(C(C)(C)C)cc2NC(=O)Nc2ccc(OCc3ccnc(Nc4cnccn4)c3)c3ccccc23)cc1 [Example 149, 1-(3-(tert-butyl)-1-(4-(methylthio)phenyl)-1H-pyrazol-5-yl)-3-(4-((2-(pyrazin-2-ylamino)pyridin-4-yl)methoxy)naphthalen-1-yl)urea]
179	CC(C)(C)c1cc(NC(=O)Nc2ccc(OCc3ccnc(Nc4cnccn4)c3)c3ccccc23)n(-c2ccccc2)n1 [Example 75]
1930	CCc1cncc(Nc2cc(COc3ccc(NC(=O)Nc4cc(C(C)(C)C)nn4-c4cc(C)cc(F)c4)c4ccccc34)ccn2)n1 [Example 254, 1-(3-(tert-butyl)-1-(3-fluoro-5-methylphenyl)-1H-pyrazol-5-yl)-3-(4-((2-((6-ethyl-pyrazin-2-yl)amino)pyridin-4-yl)methoxy)naphthalen-1-yl)urea]
108	CCN1CCN(C(=O)c2cnc(Nc3cc(COc4ccc(NC(=O)Nc5cc(C(C)(C)C)nn5-c5ccc(C)cc5)c5ccccc45)ccn3)cn2)CC1 [Example 271, 1-(3-(tert-butyl)-1-(p-tolyl)-1H-pyrazol-5-yl)-3-(4-((2-((5-(4-ethylpiperazine-1-carbonyl)pyrazin-2-yl)amino)pyridin-4-yl)methoxy)naphthalen-1-yl)urea]
75	CC(C)(C)c1cc(NC(=O)Nc2ccc(OCc3ccnc(Nc4cnc(CO)cn4)c3)c3ccccc23)n(-c2cccc(F)c2)n1 [Example 253, 1-(3-(tert-butyl)-1-(3-fluoro-phenyl)-1H-pyrazol-5-yl)-3-(4-((2-((5-(hydroxymethyl)pyrazin-2-yl)amino)pyridin-4-yl)methoxy)naphthalen-1-yl)urea]
4.7	Cc1ccc(-n2nc(C(C)(C)C)cc2NC(=O)Nc2ccc(OCc3ccnc(Nc4cnc(C(=O)N5CCN(CCN(C)C)CC5)cn4)c3)c3ccccc23)cc1 [Example 273, 1-(3-(tert-butyl)-1-(p-tolyl)-1H-pyrazol-5-yl)-3-(4-((2-((5-(4-(2-(dimethylamino)ethyl)piperazine-1-carbonyl)pyrazin-2-yl)amino)pyridin-4-yl)methoxy)naphthalen-1-yl)urea]
31	Cc1ccc(-n2nc(C(C)(C)C)cc2NC(=O)Nc2ccc(OCc3ccnc(Nc4cnc(C(=O)NCCCN5CCN(C)CC5)cn4)c3)c3ccccc23)cc1 [Example 280, 5-((4-(((4-(3-(3-(tert-butyl)-1-(p-tolyl)-1H-pyrazol-5-yl)ureido)naphthalen-1-yl)oxy)methyl)pyridin-2-yl)amino)-N-(3-(4-methyl-piperazin-1-yl)propyl) pyrazine-2-carboxamide]
129	Cc1ccc(-n2nc(C(C)(C)C)cc2NC(=O)Nc2ccc(OCc3ccnc(Nc4cnc(C(=O)N5CCN6CCC[C@H]6C5)cn4)c3)c3ccccc23)cc1 [Example 275, (S)-1-(3-(tert-butyl)-1-(p-tolyl)-1H-pyrazol-5-yl)-3-(4-((2-((5-(octahydropyrrolo [1,2-a]pyrazine-2-carbonyl)pyrazin-2-yl)amino)pyridin-4-yl)methoxy)naphthalen-1-yl)urea]
13	Cc1ccc(-n2nc(C(C)(C)C)cc2NC(=O)Nc2ccc(OCc3ccnc(Nc4cnc(C(=O)N5CCCN(C)CC5)cn4)c3)c3ccccc23)cc1 [Example 274, 1-(3-(tert-butyl)-1-(p-tolyl)-1H-pyrazol-5-yl)-3-(4-((2-((5-(4-methyl-1,4-diazepane-1-carbonyl)pyrazin-2-yl)amino)pyridin-4-yl)methoxy)naphthalen-1-yl)urea]
46	CC(=O)N1CCN(CCNC(=O)c2cnc(Nc3cc(COc4ccc(NC(=O)Nc5cc(C(C)(C)C)nn5-c5ccc(C)cc5)c5ccccc45)ccn3)cn2)CC1 [Example 102]
117	COC1CCN(CCNC(=O)c2cnc(Nc3cc(COc4ccc(NC(=O)Nc5cc(C(C)(C)C)nn5-c5ccc(C)cc5)c5ccccc45)ccn3)cn2)CC1 [Example 92]
83	Cc1ccc(-n2nc(C(C)(C)C)cc2NC(=O)Nc2ccc(OCc3ccnc(Nc4cnc(C(=O)NCCn5ccnc5C)cn4)c3)c3ccccc23)cc1 [Example 90]
> 15400	CC(C)(C)c1cc(NC(=O)Nc2ccc(OCc3ccnc(Nc4cnc(CO)cn4)c3)c3ccccc23)n(-c2cccc(Cl)c2)n1 [Example 256, 1-(3-(tert-butyl)-1-(3-chloro-phenyl)-1H-pyrazol-5-yl)-3-(4-((2-((5-(hydroxymethyl)pyrazin-2-yl)amino)pyridin-4-yl)methoxy)naphthalen-1-yl)urea]
106	CSc1cccc(-n2nc(C(C)(C)C)cc2NC(=O)Nc2ccc(OCc3ccnc(Nc4cnccn4)c3)c3ccccc23)c1 [Example 77]
103	Cc1ccc(-n2nc(C(C)(C)C)cc2NC(=O)Nc2ccc(OCc3ccnc(Nc4cnc(C(=O)N[C@H]5COC[C@@H]5N5CCOCC5)cn4)c3)c3ccccc23)cc1 [Example 93]
72	Cc1ccc(-n2nc(C(C)(C)C)cc2NC(=O)Nc2ccc(OCc3ccnc(Nc4cnc(C(=O)NC5CCN(CCO)CC5)cn4)c3)c3ccccc23)cc1 [Example 103]
116	CO[C@@H]1CCN(CCNC(=O)c2cnc(Nc3cc(COc4ccc(NC(=O)Nc5cc(C(C)(C)C)nn5-c5ccc(C)cc5)c5ccccc45)ccn3)cn2)C1 [Example 98]
197	Cc1ccc(-n2nc(C(C)(C)C)cc2NC(=O)Nc2ccc(OCc3ccnc(Nc4cnc(C(=O)N[C@@H](C)CN5CCOCC5)cn4)c3)c3ccccc23)cc1 [Example 278, (S)-5-((4-(((4-(3-(3-(tert-butyl)-1-(p-tolyl)-1H-pyrazol-5-yl)ureido)naphthalen-1-yl)oxy)methyl)pyridin-2-yl)amino)-N-(1-morpholinopropan-2-yl) pyrazine-2-carboxamide]
150	CO[C@H]1CCCN(CCNC(=O)c2cnc(Nc3cc(COc4ccc(NC(=O)Nc5cc(C(C)(C)C)nn5-c5ccc(C)cc5)c5ccccc45)ccn3)cn2)C1 [Example 54, (S)-5-((4-(((4-(3-(3-(tert-butyl)-1-(p-tolyl)-1H-pyrazol-5-yl)ureido)naphthalen-1-yl)oxy)methyl)pyridin-2-yl)amino)-N-(2-(3-methoxypiperidin-1-yl)ethyl)pyrazine-2-carboxamide]
19	Cc1ccc(-n2nc(C(C)(C)C)cc2NC(=O)Nc2ccc(OCc3ccnc(Nc4cnc(C(=O)NCCN5CCCC5)cn4)c3)c3ccccc23)cc1 [Example 86]
8.4	COCc1cccc(-n2nc(C(C)(C)C)cc2NC(=O)Nc2ccc(OCc3ccnc(Nc4cnc(CN5CCN(C)CC5)cn4)c3)c3ccccc23)c1 [Example 276, 1-(3-(tert-butyl)-1-(3-(methoxymethyl)phenyl)-1H-pyrazol-5-yl)-3-(4-((2-((5-((4-methylpiperazin-1-yl)methyl)pyrazin-2-yl)amino)pyridin-4-yl)methoxy)naphthalen-1-yl)urea]
116	Cc1ccc(-n2nc(C(C)(C)C)cc2NC(=O)Nc2ccc(OCc3ccnc(Nc4cnc(C(=O)NCCCN5CCOCC5)cn4)c3)c3ccccc23)cc1 [Example 279, 5-((4-(((4-(3-(3-(tert-butyl)-1-(p-tolyl)-1H-pyrazol-5-yl)ureido)naphthalen-1-yl)oxy)methyl)pyridin-2-yl)amino)-N-(3-morpholino-propyl)pyrazine-2-carboxamide]
1.7	COCc1cccc(-n2nc(C(C)(C)C)cc2NC(=O)Nc2ccc(OCc3ccnc(Nc4cnc(C(=O)N5CCC(N(C)C)CC5)cn4)c3)c3ccccc23)c1 [Example 284, 1-(3-(tert-butyl)-1-(3-(methoxymethyl)phenyl)-1H-pyrazol-5-yl)-3-(4-((2-((5-(4-(dimethylamino)piperidine-1-carbonyl)pyrazin-2-yl)amino)pyridin-4-yl)methoxy)naphthalen-1-yl)urea]
